Data: publication PMC4083421 (Nature Communications, 2014)
Read-outs that look alike come from different tables or passages of the source.

What was measured:
Assay type in all cases: binding
[1] = molecular target: T1, 1LysM module of AtlA (Enterococcus faecalis, UniProt P37710); assay: biochemical; settings: Apparent KD to 1LysM (SPR), single LysM module; ± standard deviation
[2] = molecular target: T1, 1LysM module of AtlA; assay: biochemical
[3] = molecular target: T2, L1–L6 (Enterococcus faecalis, UniProt P37710); assay: Steady-state SPR; settings: SD
T2 sequence (P37710 338-737): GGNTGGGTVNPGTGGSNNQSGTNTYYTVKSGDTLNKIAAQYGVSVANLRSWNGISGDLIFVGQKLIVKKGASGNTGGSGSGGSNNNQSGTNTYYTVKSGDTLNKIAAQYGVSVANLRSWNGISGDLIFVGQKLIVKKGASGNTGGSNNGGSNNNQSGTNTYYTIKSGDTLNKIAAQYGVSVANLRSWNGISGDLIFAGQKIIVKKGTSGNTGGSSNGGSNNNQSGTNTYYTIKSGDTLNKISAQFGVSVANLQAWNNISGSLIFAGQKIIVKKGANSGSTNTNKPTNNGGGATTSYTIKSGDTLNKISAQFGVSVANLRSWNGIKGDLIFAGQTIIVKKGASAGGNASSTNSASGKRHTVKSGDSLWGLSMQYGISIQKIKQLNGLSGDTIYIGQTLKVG

[4] = molecular target: T3, L1L2L3 (Enterococcus faecalis, UniProt P37710); assay: Steady-state SPR; settings: SD
T3 sequence (P37710 338-542 A476S/S477A): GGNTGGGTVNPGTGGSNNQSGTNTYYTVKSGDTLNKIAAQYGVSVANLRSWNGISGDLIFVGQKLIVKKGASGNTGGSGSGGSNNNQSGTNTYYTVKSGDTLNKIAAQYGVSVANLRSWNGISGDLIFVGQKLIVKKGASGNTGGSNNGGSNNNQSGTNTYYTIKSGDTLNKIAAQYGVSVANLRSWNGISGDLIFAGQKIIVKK

[5] = molecular target: L1L2 (Enterococcus faecalis, UniProt P37710); assay: Steady-state SPR
[6] = molecular target: L1 (Enterococcus faecalis, UniProt P37710); assay: Steady-state SPR
[7] = molecular target: T4, 1 (1LysM, WT) (Enterococcus faecalis, UniProt P37710); assay: SPR
[8] = molecular target: T4, 1 (1LysM, WT); assay: Steady-state SPR

Molecule `CC(=O)N[C@H]1[C@H](O[C@H]2[C@H](O)[C@@H](NC(C)=O)C(O)O[C@@H]2CO)O[C@H](CO)[C@@H](O[C@@H]2O[C@H](CO)[C@@H](O[C@@H]3O[C@H](CO)[C@@H](O)[C@H](O)[C@H]3NC(C)=O)[C@H](O)[C@H]2NC(C)=O)[C@@H]1O` (stereo partly drawn) [GlcNAc4, reference compound] has a Kd [1] of 43.4 ± 3 µM and a Kd [2] of 90 µM.

`CC(=O)N[C@H]1[C@H](O[C@H]2[C@H](O)[C@@H](NC(C)=O)[C@H](O[C@H]3[C@H](O)[C@@H](NC(C)=O)C(O)O[C@@H]3CO)O[C@@H]2CO)O[C@H](CO)[C@@H](O[C@@H]2O[C@H](CO)[C@@H](O[C@@H]3O[C@H](CO)[C@@H](O[C@@H]4O[C@H](CO)[C@@H](O)[C@H](O)[C@H]4NC(C)=O)[C@H](O)[C@H]3NC(C)=O)[C@H](O)[C@H]2NC(C)=O)[C@@H]1O` (stereo partly drawn) [GlcNAc6, chitohexaose (hexa-N-acetylchitohexaose, beta-1,4-linked GlcNAc hexamer)] was tested, and the Kd [3] was 1.5 ± 0.1 µM, the Kd [4] was 3 ± 0.1 µM and the Kd ([5]; SD) was 5 ± 0.3 µM. The Kd ([6]; SD) was 5.6 ± 0.5 µM.

`CC(=O)N[C@H]1[C@H](O[C@H]2[C@H](O)[C@@H](NC(C)=O)C(O)O[C@@H]2CO)O[C@H](CO)[C@@H](O[C@@H]2O[C@H](CO)[C@@H](O)[C@H](O)[C@H]2NC(C)=O)[C@@H]1O` (stereo partly drawn) [GlcNAc3] was tested, and the Kd [1] was 408 ± 80.8 µM.

In the case of `CC(=O)N[C@H]1[C@H](O[C@H]2[C@H](O)[C@@H](NC(C)=O)C(O)O[C@@H]2CO)O[C@H](CO)[C@@H](O[C@@H]2O[C@H](CO)[C@@H](O[C@@H]3O[C@H](CO)[C@@H](O)[C@H](O)[C@H]3NC(C)=O)[C@H](O)[C@H]2NC(C)=O)[C@@H]1O` (stereo partly drawn) [GlcNAc4, chitotetraose (tetra-N-acetylchitotetraose, beta-1,4-linked GlcNAc tetramer)], the Kd [3] is reported as 18.6 ± 4.5 µM, the Kd [4] is reported as 22.3 ± 1.8 µM and the Kd ([5]; SD) is reported as 38.1 ± 2.8 µM. For the same molecule, the Kd ([6]; SD) was 50.4 ± 4.1 µM.

For `CC(=O)N[C@H]1[C@H](O[C@H]2[C@H](O[C@H](C)C(=O)O)[C@@H](NC(C)=O)C(O)O[C@@H]2CO)O[C@H](CO)[C@@H](O[C@@H]2O[C@H](CO)[C@@H](O[C@@H]3O[C@H](CO)[C@@H](O)[C@H](O)[C@H]3NC(C)=O)[C@H](O[C@H](C)C(=O)O)[C@H]2NC(C)=O)[C@@H]1O` (stereo partly drawn) [(GlcNAc-MurNAc)2, (GlcNAc-β−1,4-MurNAc)2], the Kd [2] was 650 µM.

Molecule `CC(=O)N[C@H]1[C@H](O[C@H]2[C@H](O)[C@@H](NC(C)=O)[C@H](O[C@H]3[C@H](O)[C@@H](NC(C)=O)C(O)O[C@@H]3CO)O[C@@H]2CO)O[C@H](CO)[C@@H](O[C@@H]2O[C@H](CO)[C@@H](O[C@@H]3O[C@H](CO)[C@@H](O[C@@H]4O[C@H](CO)[C@@H](O)[C@H](O)[C@H]4NC(C)=O)[C@H](O)[C@H]3NC(C)=O)[C@H](O)[C@H]2NC(C)=O)[C@@H]1O` (stereo partly drawn) [GlcNAc6] has a Kd [1] of 6 ± 0.8 µM.

`CC(=O)N[C@H]1[C@H](O[C@H]2[C@H](O)[C@@H](NC(C)=O)C(O)O[C@@H]2CO)O[C@H](CO)[C@@H](O[C@@H]2O[C@H](CO)[C@@H](O)[C@H](O)[C@H]2NC(C)=O)[C@@H]1O` (stereo partly drawn) [GlcNAc3, chitotriose (tri-N-acetylchitotriose, beta-1,4-linked GlcNAc trimer)] was tested, and the Kd [3] was 702 ± 87.7 µM, the Kd [4] was 628 ± 32.8 µM and the Kd ([5]; SD) was 678 ± 57.3 µM. It also gave a Kd ([6]; SD) of 453 ± 58.6 µM.

`CC(=O)N[C@H]1[C@H](O[C@H]2[C@H](O)[C@@H](NC(C)=O)[C@H](O[C@H]3[C@H](O)[C@@H](NC(C)=O)C(O)O[C@@H]3CO)O[C@@H]2CO)O[C@H](CO)[C@@H](O[C@@H]2O[C@H](CO)[C@@H](O[C@@H]3O[C@H](CO)[C@@H](O)[C@H](O)[C@H]3NC(C)=O)[C@H](O)[C@H]2NC(C)=O)[C@@H]1O` (stereo partly drawn) [GlcNAc5, chitopentaose (penta-N-acetylchitopentaose, beta-1,4-linked GlcNAc pentamer)] was tested, and the Kd [3] was 2.2 ± 0.3 µM, the Kd [4] was 4.6 ± 0.4 µM and the Kd ([5]; SD) was 9.6 ± 0.8 µM. It also gave a Kd ([6]; SD) of 12.1 ± 1.4 µM and a Kd [7] of 11.7 ± 1.7 µM.

Molecule `CC(=O)N[C@H]1[C@H](O[C@H]2[C@H](O)[C@@H](NC(C)=O)C(O)O[C@@H]2CO)O[C@H](CO)[C@@H](O)[C@@H]1O` (stereo partly drawn) [GlcNAc2, chitobiose (di-N-acetylchitobiose, beta-1,4-linked GlcNAc dimer)] has a Kd [3] of 4420 µM, a Kd [4] of 7100 µM and a Kd [5] of over 5000 µM. For the same molecule, the Kd [6] was over 5000 µM and the Kd [8] was over 5000 µM.
